Measurements taken from patent US12180187B2, “1-phenyl-5-azinylpyrazolyl-3-oxyalkyl acids and their use for controlling unwanted plant growth” (BAYER AKTIENGESELLSCHAFT, priority 2019, dated 2024).

Experiments:
ABUTH [1] = assay: Pre-emergence action against ABUTH, 1280 g/ha; type: in vivo, Abutilon theophrasti; conditions: scored visually after about 3 weeks vs untreated controls (100% = plants have died)
How it was run: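 Compound applied as WP or EC in aqueous spray (0.5% additive, 600 L/ha) to the surface of sandy loam covering freshly sown seeds. After about 3 weeks under good greenhouse conditions, damage is given as visual percentage, 100% meaning plant death.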

ECHGC = assay: Pre-emergence action at 320 g/ha against ECHGC; type: in vivo, Echinochloa crus-galli; conditions: visual scoring after about 3 weeks vs untreated controls
How it was run: (§1)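 Application: aqueous WP or EC with 0.5% additive on soil covering seeds, 600 l/ha. Read-out: visual percent damage after ~3 weeks in greenhouse, untreated pots as reference.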

LOLRI [2] = assay: Pre-emergence action at 320 g/ha against LOLRI; type: in vivo, Lolium rigidum; conditions: visual scoring after about 3 weeks vs untreated controls
How it was run: as §1

MATIN [3] = assay: Pre-emergence action at 320 g/ha against MATIN; type: in vivo, Tripleurospermum inodorum (Matricaria inodora); conditions: visual scoring after about 3 weeks vs untreated controls
How it was run: as §1

VERPE [4] = assay: Pre-emergence action at 320 g/ha against VERPE; type: in vivo, Veronica persica; conditions: visual scoring after about 3 weeks vs untreated controls
How it was run: as §1

VIOTR = assay: Pre-emergence action at 320 g/ha against VIOTR; type: in vivo, Viola tricolor; conditions: dosage 320 g/ha
How it was run: as §1

ALOMY [5] = assay: Post-emergence action against ALOMY, 1.28 kg/ha; type: in vivo, Alopecurus myosuroides; conditions: dosage 1280 g/ha, visual rating about 3 weeks after treatment vs untreated controls
How it was run: (§2)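 Weeds grown in sandy loam in a greenhouse were sprayed at the one-leaf stage, 2–3 weeks after sowing, with WP or EC formulations in water containing 0.5% additive at 600 L/ha. About 3 weeks later, damage was scored visually versus untreated controls (0% = like control, 100% = dead).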

DIGSA = assay: Post-emergence action against DIGSA, 1.28 kg/ha; type: in vivo, Digitaria sanguinalis; conditions: dosage 1280 g/ha, visual rating about 3 weeks after treatment vs untreated controls
How it was run: as §2

LOLRI [6] = assay: Post-emergence action against LOLRI, 1.28 kg/ha; type: in vivo, Lolium rigidum; conditions: dosage 1280 g/ha, visual rating about 3 weeks after treatment vs untreated controls
How it was run: as §2

ABUTH [7] = assay: Post-emergence action against ABUTH, 1.28 kg/ha; type: in vivo, Abutilon theophrasti; conditions: dosage 1280 g/ha, visual rating about 3 weeks after treatment vs untreated controls (100% = plants died)
How it was run: as §2

MATIN [8] = assay: Post-emergence action against MATIN, 1.28 kg/ha; type: in vivo, Tripleurospermum inodorum (Matricaria inodora); conditions: dosage 1280 g/ha, visual rating about 3 weeks after treatment vs untreated controls (100% = plants died)
How it was run: as §2

VERPE [9] = assay: Post-emergence action against VERPE, 1.28 kg/ha; type: in vivo, Veronica persica; conditions: dosage 1280 g/ha, visual rating about 3 weeks after treatment vs untreated controls (100% = plants died)
How it was run: as §2

ALOMY [10] = assay: Post-emergence action against ALOMY, 320 g/ha; type: in vivo, Alopecurus myosuroides; conditions: dosage 320 g/ha, visual rating about 3 weeks after treatment vs untreated controls (100% = plants died)
How it was run: (§3)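 Sow in sandy loam → greenhouse growth 2–3 wk → spray at one-leaf stage (WP/EC, aqueous, +0.5% additive, 600 l/ha) → hold ~3 wk under optimum conditions → visual rating, 0–100% relative to untreated.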

AMARE = assay: Post-emergence action at 320 g/ha against AMARE; type: in vivo, Amaranthus retroflexus; conditions: visual rating about 3 weeks after treatment vs untreated controls
How it was run: as §3

SETVI = assay: Post-emergence action at 320 g/ha against SETVI; type: in vivo, Setaria viridis; conditions: visual rating about 3 weeks after treatment vs untreated controls
How it was run: as §3

POLCO = assay: Post-emergence action at 320 g/ha against POLCO; type: in vivo, Fallopia convolvulus (Polygonum convolvulus); conditions: visual rating about 3 weeks after treatment vs untreated controls
How it was run: as §3

COC(=O)CCOC(=O)COc1nn(-c2ccccc2F)c(-c2ccc(F)nc2)c1Br [VII-111]
Pre-emergence action against ABUTH (ABUTH [1]): 90%
Pre-emergence action against ECHGC in % (ECHGC): 100%
Pre-emergence action against LOLRI in % (LOLRI [2]): 100%
Pre-emergence action against MATIN in % (MATIN [3]): 90%
Pre-emergence action against VERPE in % (VERPE [4]): 100%
Pre-emergence action against VIOTR in % (VIOTR): 100%
Post-emergence action against ALOMY (ALOMY [5]): 100%
Post-emergence action against DIGSA (DIGSA): 100%
Post-emergence action against LOLRI (LOLRI [6]): 90%
Post-emergence action against ABUTH (ABUTH [7]): 90%
Post-emergence action against MATIN (MATIN [8]): 100%
Post-emergence action against VERPE (VERPE [9]): 90%
Post-emergence action against ALOMY (ALOMY [10]): 100%
Post-emergence action against AMARE in % (AMARE): 90%
Post-emergence action against SETVI in % (SETVI): 90%
Post-emergence action against POLCO in % (POLCO): 90%
